# Experimental data published in patent EP3936131A1, “COMPOUNDS FOR THE TREATMENT OF ZIKA” (Dompe' Farmaceutici S.P.A., priority 2020, dated 2022).
# Test system: ZIKV (HS-2015-BA-01)
# Assay: Plaque titration assay of supernatant from ZIKV-infected Vero CCL-81 cells treated with compound
# Format: cell-based, Zika Virus
# Conditions: 30, 10 and 3 microM (AEE-788 and Olcegepant: 10 and 3 microM); MOI 0.1; two treatments 24 h apart; compared to vehicle control; values only in Figures 1 to 8
# Procedure: The above compounds selected by the CADD analysis were tested in a ZIKV Vero CCL-81 cells (kidney epithelial cells from African green monkey) assay. This assay is based on viral infection of Vero cells followed by visual monitoring of cytopathic effects of the virus.
# In details, the above compounds were diluted to the final concentrations of 30 microM, 10 microM and 3 microM. The final volume required for treatment was 200 microliters per well, in a total of 12 wells.
# For infection of the cells, ZIKV (HS-2015-BA-01), isolated from a viremic patient with symptomatic infection in Bahia State, Brazil, in 2015, was used. The complete genome of the virus is under access KX520666 in Genbank. Viral dilutions were prepared in Multiplicity of Infection (MOI) at 0.1 according to a standardized method.
# In particular, 37,9 microl of virus (6x10^7 pfu/mL) was used or a total of 25.000 microl (25 ml) RPMI-0% FBS medium
# 100 microliters of the viral dilution (MOI 0,1) were added to each well and incubated at 5% of CO2 at T= 37°C for 1 hour for adsorption step, swift rocking every 15'.
# After discarding the supernatant, 200 microliters of diluted compounds at the different concentrations described above, or vehicle were added for each compound and left in incubation at 5% of CO2 at T= 37°C for 24 hours.
# After 24 hours of the first treatment the treatment was repeated a second time, with the same concentration of each compound, and at the same conditions (5% of CO2 at T= 37°C for […]).
# After 24 hours, the supernatant was collected and used to perform MTT, LDH plaque titration assays, as described above.
# Vero CCL-81 cells (kidney epithelial cells from African green monkey) were seeded in 24-well plates at a density of […].
# Cells were maintained in RPMI 1640 medium (Cultilab) supplemented with 10% FBS (Cultilab), 2 mM L-glutamine (Gibco) and 100U/50µg penicillin/streptomycin (Sigma-Aldrich) for 24 h at 37°C in a 5% CO2 incubator.
# Serial ten-fold dilutions of viral suspension in sterile dilution tubes were prepared (10-1 up to 10-4). To this aim, tubes were filled with 450 microl of medium 0% SFB and 50 microl of the sample added on the first tube. The same procedure was repeated to obtain serial dilutions by passing 50 microliters to the next dilution and successively for the other dilutions. 300 µl of each serial dilution were added into each of the two wells of 24-well plate, maintaining two wells without infection.
# The inoculated plate was incubated at 37°C for 1 hour in a 5% CO2 incubator to allow virus adsorption, swift rocking every 15'. Once discard the cell supernatant from all wells, 1 ml of 1,60% semi-solid carboxymethyl cellulose (CMC) overlay medium with 2% FBS was added to each well to limit the virus dissemination.
# The plate was left 4 days at 37°C in a 5% CO2 incubator. Then cell monolayer was incubated with 1 ml of the 10% formol for a minimum 18 hours at room temperature for fixation. Once removed and fixed the overlay medium, the cell monolayer was washed in running water, stained with 1 ml of the 0.04% Violet crystal for 1 hour at room temperature, and the count of viral plaques to calculate plaque-forming unit (PFU) was conducted.
row,Compound,virus replication (viral load expressed as log10 plaque forming equivalents)
1,"CCOc1nc2cccc(C(=O)OC(C)OC(=O)OC3CCCCC3)c2n1Cc1ccc(-c2ccccc2-c2nnn[nH]2)cc1 (racemic) [Candesartan cilexetil, (±)-2-Ethoxy-1-[2'-(1 H-tetrazol-5-yl)biphenyl-4-ylmethyl]-1 H-benzimidazole-7-carboxylic acid 1-(cyclohexyloxycarbonyloxy) ethyl ester]",inhibition of virus replication
2,"CCN1CCN(Cc2ccc(-c3cc4c(N[C@H](C)c5ccccc5)ncnc4[nH]3)cc2)CC1 [AEE-788, 6-[4-(4-Ethylpiperazin-1-ylmethyl)phenyl]-N-[1(R)-phenylethyl]-7H-pyrrolo[2,3-d]pyrimidin-4-amine]",inhibition of virus replication
3,"Cn1c(=O)n(-c2ccc(C(C)(C)C#N)cc2)c2c3cc(-c4cnc5ccccc5c4)ccc3ncc21 [Dactolisib, 2-Methyl-2-[4-[3-methyl-2-oxo-8-(3-quinolinyl)-2,3-dihydro-1 H-imidazo[4,5-c]quinolin-1-yl]phenyl]propanenitrile]",inhibition of virus replication
4,"NCCCC[C@H](NC(=O)[C@@H](Cc1cc(Br)c(O)c(Br)c1)NC(=O)N1CCC(N2Cc3ccccc3NC2=O)CC1)C(=O)N1CCN(c2ccncc2)CC1 [Olcegepant, N-[2-[5-Amino-1 (S)-[4-(4-pyridyl)piperazin-1-ylcarbonyl]pentylamino]-1(R)-(3,5-dibromo-4-hydroxybenzyl)-2-oxoethyl]-4-(2-oxo-1,2,3,4-tetrahydroquinazolin-3-yl)piperidine-1-carboxamide]",inhibition of virus replication
5,"CC[C@@H]([C@H](C)O)n1ncn(-c2ccc(N3CCN(c4ccc(OC[C@@H]5CO[C@@](Cn6cncn6)(c6ccc(F)cc6F)C5)cc4)CC3)cc2)c1=O [Posaconazole, 4-[4-[4-[4-[5(R)-(2,4-Difluorophenyl)-5-(1,2,4-triazol-1-ylmethyl)tetrahydrofuran-3(R)-ylmethoxy]phenyl]piperazin-1-yl]phenyl]-2-[1(S)-ethyl-2(S)-hydroxypropyl]-3,4-dihydro-2H-1,2,4-triazol-3-one]",inhibition of virus replication
6,"Cc1cc(/C=C/C#N)cc(C)c1Nc1ccnc(Nc2ccc(C#N)cc2)n1.Cl [Rilpivirine hydrochloride, 4-[4-[4-[(E)-2-Cyanovinyl]-2,6-dimethylphenylamino]pyrimidin-2-ylamino]benzonitrile hydrochloride]",inhibition of virus replication
